Biological target: T1, P2X4 receptor (Homo sapiens, UniProt Q99571)
T1 construct: expressed in transfected cells; host or cells: 1321N1 astrocytoma cells, retroviral vector pQCXIN, G418 selection, monoclones
T1 sequence (Q99571 1-388): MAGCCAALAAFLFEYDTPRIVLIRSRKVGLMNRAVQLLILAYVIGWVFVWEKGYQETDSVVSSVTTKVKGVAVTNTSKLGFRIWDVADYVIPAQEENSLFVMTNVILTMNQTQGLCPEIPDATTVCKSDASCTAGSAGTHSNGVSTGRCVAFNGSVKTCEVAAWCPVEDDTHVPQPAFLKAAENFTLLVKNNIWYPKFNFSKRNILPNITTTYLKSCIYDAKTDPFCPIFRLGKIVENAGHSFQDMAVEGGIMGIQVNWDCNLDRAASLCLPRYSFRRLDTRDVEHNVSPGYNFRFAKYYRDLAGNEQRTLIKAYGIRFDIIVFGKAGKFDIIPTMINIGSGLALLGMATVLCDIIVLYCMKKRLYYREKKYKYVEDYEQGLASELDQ
Assay: Measurement of Ca2+ influx in transfected 1321N1 astrocytoma cells (P2X4 inhibitory potency)
Format: cell-based
Conditions: agonist-mediated Ca2+ influx, FLUO-4, 1321N1 astrocytoma cells; antagonists added 30 min before agonist
Procedure, shortened: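 Stable 1321N1 astrocytoma cells expressing human P2X4, loaded with FLUO-4 AM (2.4 μM) in HBSS/HEPES pH 7.3 for 1 h at 23 °C. Antagonists added 30 min before agonist; fluorescence at 520 nm recorded for 30 s. Compounds tested at 7–8 concentrations spanning three log units.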

IC50 | Molecule
0.1 to 19 nM | CCc1nsc(-c2ccc(C)c(NCC(=O)N3CCc4c(OCCOCCO)cccc43)c2)n1 [Example 19, 2-((5-(3-ethyl-1,2,4-thiadiazol-5-yl)-2-methylphenyl)amino)-1-(4-(2-(2-hydroxyethoxy)ethoxy)indolin-1-yl)ethan-1-one]
> 100 nM | COc1ccc(-c2cc(C)c(C)cn2)cc1NCC(=O)N1CCc2c(O)cccc21 [Example 121, 2-((5-(4,5-dimethyl-pyridin-2-yl)-2-methoxyphenyl)amino)-1-(4-hydroxyindolin-1-yl) ethan-1-one]
0.1 to 19 nM | CCc1nsc(-c2ccc(C)c(NCC(=O)N3CCc4c(O)cccc43)c2)n1 [Example 84, 2-((5-(3-ethyl-1,2,4-thiadiazol-5-yl)-2-methylphenyl)amino)-1-(4-hydroxyindolin-1-yl) ethan-1-one]
20 to 39 nM | Cc1nsc(-c2ccc(C)c(NCC(=O)N3CCc4c(C(O)C(F)(F)F)cccc43)c2)n1 (stereo not shown) [Example 33, 2-((2-methyl-5-(3-methyl-1,2,4-thiadiazol-5-yl)phenyl)amino)-1-(4-(2,2,2-trifluoro-1-hydroxyethyl)indolin-1-yl)ethan-1-one]
20 to 39 nM | Cc1ccc(-c2nc(C(F)F)ns2)cc1NCC(=O)N1CCc2c1cccc2C(C)(C)O [Example 40, 2-((5-(3-(difluoromethyl)-1,2,4-thiadiazol-5-yl)-2-methylphenyl)amino)-1-(4-(2-hydroxypropan-2-yl)indolin-1-yl) ethan-1-one]
20 to 39 nM | Cc1nsc(-c2ccc(C)c(NCC(=O)N3CCc4c(NS(C)(=O)=O)cccc43)c2)n1 [Example 46, N-(1-((2-methyl-5-(3-methyl-1,2,4-thiadiazol-5-yl)phenyl)glycyl)indolin-4-yl)methanesulfonamide]
20 to 39 nM | CCc1noc(-c2ccc(F)c(NCC(=O)N3CCc4cc(OC)c(F)cc43)c2)n1 [Example 3, 2-((5-(3-ethyl-1,2,4-oxadiazol-5-yl)-2-fluorophenyl)amino)-1-(6-fluoro-5-methoxyindolin-1-yl)ethan-1-one]
70 to 99 nM | 2-((2-methyl-5-(3-methyl- 1,2,4-oxadiazol-5-yl) phenyl)amino)-1-(1H- pyrrolo[2,3-b]pyridin-3- yl)ethan-1-one [Example 107]
0.1 to 19 nM | CC(=O)Nc1cccc2c1CCN2C(=O)CNc1cc(-c2nc(C)ns2)ccc1C [Example 76, N-(1-((2-methyl-5-(3-methyl-1,2,4-thiadiazol-5-yl)phenyl)-glycyl)indolin-4-yl) acetamide]
20 to 39 nM | CCc1nsc(-c2ccc(C)c(NCC(=O)N3CCc4c3cccc4-n3ccnc3)c2)n1 [Example 35, 1-(4-(1H-imidazol-1-yl)indolin-1-yl)-2-((5-(3-ethyl-1,2,4-thiadiazol-5-yl)-2-methyl-phenyl)amino)ethan-1-one]
70 to 99 nM | Cc1nsc(-c2ccc(C)c(NCC(=O)N3CCc4nc(Cl)ccc43)c2)n1 [Example 10, 1-(5-chloro-2,3-dihydro-1H-pyrrolo[3,2-b]pyridin-1-yl)-2-((2-methyl-5-(3-methyl-1,2,4-thiadiazol-5-yl)phenyl)amino)ethan-1-one]
0.1 to 19 nM | CCc1noc(-c2ccc(OC)c(NCC(=O)c3c[nH]c4cc(OC)c(F)cc34)c2)n1 [Example 97, 2-((5-(3-ethyl-1,2,4-oxadiazol-5-yl)-2-methoxyphenyl)amino)-1-(5-fluoro-6-methoxy-1H-indol-3-yl) ethan-1-one]

Molecule | IC50
Cc1noc(-c2ccc(C)c(NCC(=O)N3CCc4c(OCCC(C)(C)O)cccc43)c2)n1 [Example 47, 1-(4-(3-hydroxy-3-methylbutoxy)indolin-1-yl)-2-((2-methyl-5-(3-methyl-1,2,4-oxadiazol-5-yl)phenyl)amino)ethan-1-one] | 20 to 39 nM

Source: patent publication US20260209215A1, “GLYCINE DERIVATIVES WITH P2X4 RECEPTOR-BLOCKING ACTIVITY AS DIAGNOSTICS AND FOR THE TREATMENT OF PAIN, INFLAMMATION, CANCER, AND OTHER P2X4 RECEPTOR-RELATED DISEASES” (RHEINISCHE-FRIEDRICH-WILHELMS-UNIVERSITÄT BONN, priority 2022, published 2026)
